These results are taken from PMC9376091, “Identification of small molecules targeting homoserine acetyl transferase from Mycobacterium tuberculosis and Staphylococcus aureus” (Scientific Reports, 2022).

In assay [1] the target is T1, HSAT, MetX, Rv3341, (His)6-MetX, (His)6-Rv3341 (Mycobacterium tuberculosis, UniProt P9WJY9).
T1 construct: gene metXA
In words: DTNB CoA release endpoint assay. In kind it is biochemical.

Assay [2] has as its target T2, S. aureus HSAT, HSAT homolog from S. aureus (Staphylococcus aureus, UniProt A0A447ZIT7).
T2 construct: gene metX; cloned in pET28b (His tag implied), expressed in E. coli BL-21 (DE3, plysS), Ni-NTA and gel filtration; 4QLO used for docking
T2 sequence (A0A447ZIT7 1-322): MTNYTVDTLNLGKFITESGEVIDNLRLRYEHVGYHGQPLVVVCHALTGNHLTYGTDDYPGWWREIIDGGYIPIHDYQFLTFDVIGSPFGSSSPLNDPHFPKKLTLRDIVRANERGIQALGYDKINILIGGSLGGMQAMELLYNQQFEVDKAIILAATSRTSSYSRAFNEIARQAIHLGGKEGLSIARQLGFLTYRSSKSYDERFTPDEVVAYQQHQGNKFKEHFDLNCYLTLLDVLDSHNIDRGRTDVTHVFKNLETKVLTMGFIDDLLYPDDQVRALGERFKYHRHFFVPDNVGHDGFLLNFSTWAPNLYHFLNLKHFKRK
In words: DTNB CoA release endpoint assay. In kind it is biochemical. The note with it: 1.0 mM L-homoserine, 1.0 mM acetyl-CoA, 5.0 mM MgCl2, Tris-Cl pH 7.4, 37 °C.

What is called inhibition is the percentage by which the read-out fell short of the control. The % inhibition is the percentage by which the read-out fell short of the control. A low value points to a response near the control.

A value given as a limit tells only on which side of the number the result lay.

T1 sequence (P9WJY9 whole entry, looked up): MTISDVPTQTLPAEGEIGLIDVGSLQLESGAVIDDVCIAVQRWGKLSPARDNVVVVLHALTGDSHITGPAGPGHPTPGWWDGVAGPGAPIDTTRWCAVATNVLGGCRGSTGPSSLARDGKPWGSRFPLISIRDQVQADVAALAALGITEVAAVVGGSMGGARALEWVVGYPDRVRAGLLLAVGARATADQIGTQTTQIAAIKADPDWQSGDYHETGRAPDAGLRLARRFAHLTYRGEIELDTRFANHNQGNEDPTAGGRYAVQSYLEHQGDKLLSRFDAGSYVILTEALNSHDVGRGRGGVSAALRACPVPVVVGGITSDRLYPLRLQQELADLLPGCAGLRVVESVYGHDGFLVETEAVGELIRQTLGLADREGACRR

In assay [1], `CCOC(=O)/C(C#N)=C1\SS/C(=C(/C#N)C(=O)OCC)S1` [compound 2, NSC98363] registered an inhibition at 100 µM above 50%.

On to `Oc1cc(CNC2CCCCC2)c(O)cc1CNC1CCCCC1` [compound 3, NSC48443], for which the “% inhibition at 100 μM” value in assay [2] is reported as above 60%. In assay [1], this compound yielded an inhibition at 100 µM above 50%.

With `C/C(=N\NC(=S)N(C)C)c1ccccn1.[Cu][Br]` [compound 4, NSC635448], the “% inhibition at 100 μM” value was above 60% in assay [2] and above 50% in assay [1] (1.0 mM L-homoserine, 1.0 mM acetyl-CoA, 5.0 mM MgCl2, Tris-Cl pH 7.4, 37 °C).

As for `Cc1ccc(S(=O)(=O)SC/C=C/CSS(=O)(=O)c2ccc(C)cc2)cc1` [compound 5, NSC624158], in assay [2], the “% inhibition at 100 μM” value is recorded as above 60%. In addition, the inhibition at 100 µM in assay [1] is above 50%.

Regarding `COc1cc(-c2ccc(Nc3ccccc3C(=O)O)c(OC)c2)ccc1Nc1ccccc1C(=O)O` [compound 6, NSC73735], in assay [1], the inhibition at 100 µM was above 50%.

Turning to `O=Nc1c(-c2cccc([N+](=O)[O-])c2)nc2ncccn12` [compound 7, NSC369066], the inhibition at 100 µM in assay [1] is above 50%.

In the case of `Oc1cc(-n2cccn2)c(O)cc1-n1cccn1` [compound 8, NSC645987], the inhibition at 100 µM in assay [1] is above 50%.
